Earlier results as cited in patent US20130064804A1, “BIO-REPLENISHMENT (BioRep) FOR IMPROVING SLEEP ARCHITECTURE” (Naidu LP, priority 2011, published 2013).

Assays:
[1] = in vivo
[2] = typical dose (1 to 3 mg)

Row | Compound | first-pass: fraction metabolized in the liver [1] | elevation of blood melatonin levels above normal [2] [times]
1 | C[S+](CC[C@H](N)C(=O)O)C[C@H]1O[C@@H](n2cnc3c(N)ncnc32)[C@H](O)[C@@H]1O (some centres unmarked) [SAMe, S-adenosylmethionine] | approximately 50% | 
2 | COc1ccc2[nH]cc(CCNC(C)=O)c2c1 [melatonin, N-acetyl-5-methoxytryptamine] |  | 1 to 20
